US20210395313A1, “PEPTIDE PAC1 ANTAGONISTS” (AMGEN INC., priority 2017, published 2021)
Bridges are numbered along the chain shown (N, C = ends). Where no end group is shown, it is not given here. [ ]: non-standard residue; d: D form. SeMet = C[Se]CC[C@H](N)C(=O)O

Assays:
rat PAC1 receptor = target: T1, rat PAC1 receptor (Rattus norvegicus, UniProt P32215); assay: LANCE Ultra cAMP accumulation antagonist assay in RG-2 cells; type: cell-based;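 note: RG-2 rat glioma cells endogenously expressing PAC1, test peptide preincubated 30 min, then PAC1 agonist added at its EC80 for 15 min, cAMP accumulation read by LANCE Ultra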
T1 construct: SHSY-5Y (human neuroblastoma cell line) and RG-2 (rat glioma cell line) cells endogenously express human and rat PAC1 receptors, respectively; endogenous in cells; host or cells: RG-2 rat glioma cells
T1 sequence (P32215 20-523): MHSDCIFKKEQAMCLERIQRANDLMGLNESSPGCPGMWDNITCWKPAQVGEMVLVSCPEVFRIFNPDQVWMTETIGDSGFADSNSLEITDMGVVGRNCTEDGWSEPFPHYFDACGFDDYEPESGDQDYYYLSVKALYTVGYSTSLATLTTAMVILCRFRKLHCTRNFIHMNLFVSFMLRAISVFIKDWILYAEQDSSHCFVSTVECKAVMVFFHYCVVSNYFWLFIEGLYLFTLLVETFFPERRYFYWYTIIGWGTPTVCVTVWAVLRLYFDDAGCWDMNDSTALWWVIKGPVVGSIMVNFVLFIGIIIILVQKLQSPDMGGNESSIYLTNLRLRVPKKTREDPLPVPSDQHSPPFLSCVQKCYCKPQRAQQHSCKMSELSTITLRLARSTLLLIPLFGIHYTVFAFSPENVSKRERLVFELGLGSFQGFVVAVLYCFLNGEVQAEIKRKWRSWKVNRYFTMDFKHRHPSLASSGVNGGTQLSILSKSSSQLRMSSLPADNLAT
Experimental: (§1) In order to determine the potency of peptide antagonists at the PAC1 receptor, functional cAMP accumulation assays using LANCE Ultra cAMP assay kit to measure the agonist and antagonist activity of PAC1 peptides were used. SHSY-5Y (human neuroblastoma cell line) and RG-2 (rat glioma cell line) cells endogenously express human and rat PAC1 receptors, respectively. Agonist activity of PAC1 peptides was tested by incubating with SHSY-5Y at 2,000 cells per well or RG-2 at 5,000 cells per well for 15 minutes at room temperature. PAC1 receptor agonist PACAP38 or maxadilan was included as a positive control. The reaction was stopped by adding detection mixture, europium (Eu) chelate-labeled cAMP tracer and cAMP-specific monoclonal antibodies labeled with the ULight™ dye, to all wells followed by a 60-minute incubation at room temperature. The assay plates were then read on an EnVision instrument at an emission wavelength of 665 and 615 nm and data were analyzed using Genedata Screener or GraphPad Prism software. A similar procedure was used in the antagonist assays by using a fixed concentration of PAC1 agonist. The concentrations of agonists were chosen based on their ECK) values at PAC1 receptors in SHSY-5Y or RG-2 cells. SHSY-5Y or RG-2 cells were added into 96-well half-area white plates. Serially diluted PAC1 peptides at ten concentrations were added and incubated for 30 minutes at room temperature. PAC1 agonist at EC80 concentration was then added and further incubated for 15 minutes at room temperature. The reaction was stopped by adding detection mixture to all wells followed by a 60-minute incubation at room temperature. The assay plates were read and analyzed the same way as that of agonist assay. Cells, agonists, and PAC1 peptides were prepared in freshly made assay buffer (F-12, 0.5 mM IBMX, 0.1 or 0.4% BSA (pH 7.4)). Detection mixture was made by mixing a 1/50 dilution of the Eu-cAMP tracer stock solution in cAMP Detection Buffer and a 1/150 dilution of the ULight-anti-cAMP stock solution in cAMP Detection Buffer. Europium (Eu) chelate-labeled cAMP tracer, cAMP-specific monoclonal antibodies labeled with the ULight™ dye, BSA, and detection buffer were provided in LANCE Ultra cAMP Kit from PerkinElmer

human PAC1 receptor = target: T2, human PAC1 receptor (Homo sapiens, UniProt P41586); assay: LANCE Ultra cAMP accumulation antagonist assay in SHSY-5Y cells; type: cell-based;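 note: inhibition of cAMP accumulation evoked by PAC1 agonist at its EC80 in SHSY-5Y cells endogenously expressing receptor, 30 min preincubation then 15 min agonist, TR-FRET readout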
T2 construct: SHSY-5Y (human neuroblastoma cell line) and RG-2 (rat glioma cell line) cells endogenously express human and rat PAC1 receptors, respectively; endogenous in cells; host or cells: SHSY-5Y human neuroblastoma cells
T2 sequence (P41586 21-468): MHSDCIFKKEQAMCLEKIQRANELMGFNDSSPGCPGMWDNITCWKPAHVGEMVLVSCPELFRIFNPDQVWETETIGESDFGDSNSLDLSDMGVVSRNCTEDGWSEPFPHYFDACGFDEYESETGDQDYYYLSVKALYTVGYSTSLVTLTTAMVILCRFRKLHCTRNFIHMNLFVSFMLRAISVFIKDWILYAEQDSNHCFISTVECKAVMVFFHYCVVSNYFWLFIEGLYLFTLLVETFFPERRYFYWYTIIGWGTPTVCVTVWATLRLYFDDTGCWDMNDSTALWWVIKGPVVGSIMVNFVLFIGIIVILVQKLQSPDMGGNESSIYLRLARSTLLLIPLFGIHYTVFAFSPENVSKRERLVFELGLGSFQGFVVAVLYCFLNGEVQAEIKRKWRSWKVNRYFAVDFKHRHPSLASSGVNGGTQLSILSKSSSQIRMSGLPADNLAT
Experimental: as §1

Substance | IC50 (rat PAC1 receptor) [nM] | IC50 (human PAC1 receptor) [nM]
CDATCQFRKAIDDCAKQAHHSNVPGSVFKLCMKQKKKEFKAG-NH2 (disulfide 1-5, 14-31) [compound 18] | < 0.01 | 0.01 to 1
CDATCQFRKAIDDCAKQAHHSNVPGSVFKSCMKQKKKEFKAG-NH2 (disulfide 1-5, 14-31) [compound 31] | < 0.01 | 0.01 to 1
CDATCQFRKAIDDCARQAHHANVPGSVFKACMKQKKKEWKAGH (disulfide 1-5, 14-31) [compound 8] | 0.01 to 1 | 0.01 to 1
CDATCQFRKAIDDCARQAHHSNVPGSVFKACFKQKKKEWKAGH (disulfide 1-5, 14-31) [compound 39] | 0.01 to 1 | 0.01 to 1
CDATCQFRKAIDDCARQAHHSNVPGSVFKACIKQKKKEWKAGH (disulfide 1-5, 14-31) [compound 9] | 0.01 to 1 | 0.01 to 1
CDATCQFRKAIDDCARQAHHSNVPGSVFKACLKQKKKEWKAGH (disulfide 1-5, 14-31) [compound 41] | 0.01 to 1 | 0.01 to 1
CDATCQFRKAIDDCARQAHHSNVPGSVFKACMKQKKKEFKAG-NH2 (disulfide 1-5, 14-31) [compound 17] | < 0.01 | 0.01 to 1
CDATCQFRKAIDDCARQAHHSNVPGSVFKACMKQKKKEWKAGH-NH2 (disulfide 1-5, 14-31) [compound 2] | 0.01 to 1 | 0.01 to 1
CDATCQFRKAIDDCARQAHHSNVPGSVFKACMKQKKKEYKAGH (disulfide 1-5, 14-31) [compound 10] | 0.01 to 1 | 0.01 to 1
CDATCQFRKAIDDCARQAHHSNVPGSVFKACSKQKKKEWKAGH (disulfide 1-5, 14-31) [compound 40] | 1 to 100 | 1 to 100
CDATCQFRKAIDDCARQAHHSNVPGSVFKAC[SeMet]KQKKKEWKAGH (disulfide 1-5, 14-31) [compound 7] | 0.01 to 1 | 0.01 to 1
CDATCQFRKAIDDCARQAHHSNVPGSVFKLCMKQKKKEWKAGH (disulfide 1-5, 14-31) [compound 23] | < 0.01 | 0.01 to 1
CDATCQFRKAIDDCARQAHHSNVPGSVFKSCMKQKKKEWKAGH (disulfide 1-5, 14-31) [compound 24] | 0.01 to 1 | 0.01 to 1
CDATCQFRKAIDDCARQAHHSNVPGSVWKACMKQKKKEWKAGH (disulfide 1-5, 14-31) [SEQ ID NO 105] | 0.01 to 1 | 0.01 to 1
CDATCQFRKAIDDCARQAHHSQVPGSVFKACMKQKKKEWKAGH (disulfide 1-5, 14-31) [compound 22] | 0.01 to 1 | 0.01 to 1
CDATCQFRKAIDDCAWFALHSNVPGSVFKACMKQKKKEFKAG-NH2 (disulfide 1-5, 14-31) [compound 91] | 0.01 to 1 | 0.01 to 1
CDATCQFRKAIDDCAWFAMHSNVPGSVFKACMKQKKKEFKAG-NH2 (disulfide 1-5, 14-31) [compound 90] | 0.01 to 1 | 0.01 to 1
CDATCQFRKAIDDCDKQAHHSNVPGSVFKACMKQKKKEFQAG-NH2 (disulfide 1-5, 14-31) [compound 169] | 0.01 to 1 | 0.01 to 1
CDATCQFRKAIDDCDRQAHHSNVPGSVFKACMKQKKKEFKAG-NH2 (disulfide 1-5, 14-31) [compound 168] | 0.01 to 1 | 0.01 to 1
CDATCQFRKAIDDCDRQAHHSNVPGSVFKACMKQKKKEFKAGH (disulfide 1-5, 14-31) [compound 155] | 0.01 to 1 | 1 to 100
CDATCQFRKAIDDCDRQAHHSNVPGSVFKACMKQKKKEWKAG (disulfide 1-5, 14-31) [compound 81] | 0.01 to 1 | 1 to 100
CDATCQFRKAIDDCDRQAHHSNVPGSVFKACMKQKKKEWKAGH (disulfide 1-5, 14-31) [compound 167] | 0.01 to 1 | 0.01 to 1
CDATCQFRKAIDDCDRQAHHSNVPGSVFKACMKQKKKEWKAN (disulfide 1-5, 14-31) [compound 159] | 0.01 to 1 | 1 to 100
CDATCQFRKAIDDCDRQAHHSNVPGSVFKACMKQKKKEWKAN-NH2 (disulfide 1-5, 14-31) [compound 158] | 0.01 to 1 | 0.01 to 1
CDATCQFRKAIDDCDRQAHHSNVPGSVFKACMKQKKKEWKANN (disulfide 1-5, 14-31) [compound 154] | 0.01 to 1 | 0.01 to 1

Substance | IC50 (rat PAC1 receptor) [nM] | IC50 (human PAC1 receptor) [nM]
CDATCQFRKAIDDCDRQAYHSNVPGSVFKACMKQKKKEWKAG-NH2 (disulfide 1-5, 14-31) [compound 144] | 0.01 to 1 | 0.01 to 1
CDATCQFRKAIDDCFTWAWHSNVPGSVFKACMKQKKKEFKAG-NH2 (disulfide 1-5, 14-31) [compound 74] | 0.01 to 1 | 0.01 to 1
CDATCQFRKAIDDCFTWSWHSNVPGSVFKACMKQKKKEFKAG-NH2 (disulfide 1-5, 14-31) [compound 135] | 0.01 to 1 | 0.01 to 1
CDATCQFRKAIDDCFWLASHSNVPGSVWKACMKQKKKEFKAG-NH2 (disulfide 1-5, 14-31) [compound 119] | 0.01 to 1 | 0.01 to 1
CDATCQFRKAIDDCFYQAWHSNVPGSVWKACMKFRFNVWKAG-NH2 (disulfide 1-5, 14-31) [compound 55] | 0.01 to 1 | 1 to 100
CDATCQFRKAIDDCFYQAWHSNVPGSVWKACMKQKKKEFKAG-NH2 (disulfide 1-5, 14-31) [compound 139] | 0.01 to 1 | 0.01 to 1
CDATCQFRKAIDDCHLLAWHANVPGSVFKACMKQKKKEFKAG-NH2 (disulfide 1-5, 14-31) [compound 140] | 0.01 to 1 | 0.01 to 1
CDATCQFRKAIDDCHLLAWHSNVPGSVFKACMKQKKKEFKAG-NH2 (disulfide 1-5, 14-31) [compound 76] | 0.01 to 1 | 0.01 to 1
CDATCQFRKAIDDCIFWAAHSNVPGSVFKACMKQKKKEFKAG-NH2 (disulfide 1-5, 14-31) [compound 123] | 0.01 to 1 | 0.01 to 1
CDATCQFRKAIDDCLWWSQHSNVPGSVFKACMKQKKKEFKAG-NH2 (disulfide 1-5, 14-31) [compound 117] | 0.01 to 1 | 0.01 to 1
CDATCQFRKAIDDCLWYARHSNVPGSVFKACMKQKKKEFKAG-NH2 (disulfide 1-5, 14-31) [compound 120] | 0.01 to 1 | 0.01 to 1
CDATCQFRKAIDDCMLFSWHSNVPGSVFKACMKQKKKEFKAG-NH2 (disulfide 1-5, 14-31) [compound 131] | 0.01 to 1 | 0.01 to 1
CDATCQFRKAIDDCMLLSWHSNVPGSVFKACMKQKKKEFKAG-NH2 (disulfide 1-5, 14-31) [compound 132] | < 0.01 | 0.01 to 1
CDATCQFRKAIDDCMWFAWHSNVPGSVFKACMKQKKKEFKAG-NH2 (disulfide 1-5, 14-31) [compound 122] | 0.01 to 1 | 0.01 to 1
CDATCQFRKAIDDCMWYSRHSNVPGSVFKACMKQKKKEFKAG-NH2 (disulfide 1-5, 14-31) [compound 121] | 0.01 to 1 | 0.01 to 1
CDATCQFRKAIDDCQKQAHHSNVPGSVFKACLKQKKKEFKAG-NH2 (disulfide 1-5, 14-31) [compound 143] | 0.01 to 1 | 0.01 to 1
CDATCQFRKAIDDCQKQAHHSNVPGSVFKACLLQKKKEFKAG-NH2 (disulfide 1-5, 14-31) [compound 100] | 1 to 100 | 1 to 100
CDATCQFRKAIDDCQKQAHHSNVPGSVFKACLVQKKKEFKAG-NH2 (disulfide 1-5, 14-31) [compound 101] | 1 to 100 | 1 to 100
CDATCQFRKAIDDCQKQAHHSNVPGSVFKACMKFRFNVWKAG-NH2 (disulfide 1-5, 14-31) [compound 127] | 0.01 to 1 | 0.01 to 1
CDATCQFRKAIDDCQKQAHHSNVPGSVFKACMKFRRFLWKAG-NH2 (disulfide 1-5, 14-31) [compound 128] | 0.01 to 1 | 0.01 to 1
CDATCQFRKAIDDCQKQAHHSNVPGSVFKACMKFRRTLWKAG-NH2 (disulfide 1-5, 14-31) [compound 89] | 0.01 to 1 | 1 to 100
CDATCQFRKAIDDCQKQAHHSNVPGSVFKACMKQKKKEFKA-NH2 (disulfide 1-5, 14-31) [compound 214] | 0.01 to 1 | 1 to 100
CDATCQFRKAIDDCQKQAHHSNVPGSVFKACMKQKKKEFKAGHHHHHH (disulfide 1-5, 14-31) [compound 160] | 0.01 to 1 | 1 to 100
CDATCQFRKAIDDCQKQAHHSNVPGSVFKACMKQKKKEFKAGQ (disulfide 1-5, 14-31) [compound 174] | 0.01 to 1 | 1 to 100
